According to ChEMBL document CHEMBL1136964, “Nicotinic agonist binding site mapped by methionine- and tyrosine-scanning coupled with azidochloropyridinyl photoaffinity labeling” (J Med Chem, 2009):

How the values were obtained:
Assay type in all cases: cell-based
[1] = Displacement of [3H]epibatidine from Aplysia californica AchBP V108M, M116L mutant expressed in HEK293S cells by scintillation proximity assay
[2] = Displacement of [3H]epibatidine from Aplysia californica AchBP M116L mutant expressed in HEK293S cells by scintillation proximity assay
[3] = Displacement of [3H]epibatidine from Aplysia californica AchBP S114M, M116L, Y195F mutant expressed in HEK293S cells by scintillation proximity assay
[4] = Displacement of [3H]epibatidine from Aplysia californica AchBP A107M, M116L mutant expressed in HEK293S cells by scintillation proximity assay
[5] = Displacement of [3H]epibatidine from Aplysia californica AchBP M116L,Y195F mutant expressed in HEK293S cells by scintillation proximity assay
[6] = Displacement of [3H]epibatidine from Aplysia californica AchBP A107M mutant expressed in HEK293S cells by scintillation proximity assay
[7] = Displacement of [3H]epibatidine from wild type Aplysia californica AchBP expressed in HEK293S cells by scintillation proximity assay
[8] = Displacement of [3H]epibatidine from Aplysia californica AchBP S114M mutant expressed in HEK293S cells by scintillation proximity assay
[9] = Displacement of [3H]epibatidine from Aplysia californica AchBP I118M, M116L mutant expressed in HEK293S cells by scintillation proximity assay
[10] = Displacement of [3H]epibatidine from Aplysia californica AchBP I106M, M116L, Y195F mutant expressed in HEK293S cells by scintillation proximity assay
[11] = Displacement of [3H]epibatidine from Aplysia californica AchBP I118M, M116L, Y195F mutant expressed in HEK293S cells by scintillation proximity assay
[12] = Displacement of [3H]epibatidine from Aplysia californica AchBP V108M mutant expressed in HEK293S cells by scintillation proximity assay
[13] = Displacement of [3H]epibatidine from Aplysia californica AchBP S114M, M116L mutant expressed in HEK293S cells by scintillation proximity assay
[14] = Displacement of [3H]epibatidine from Aplysia californica AchBP A107M, M116L, Y195F mutant expressed in HEK293S cells by scintillation proximity assay
[15] = Displacement of [3H]epibatidine from Aplysia californica AchBP Y195F mutant expressed in HEK293S cells by scintillation proximity assay
[16] = Displacement of [3H]epibatidine from Aplysia californica AchBP I118M mutant expressed in HEK293S cells by scintillation proximity assay
[17] = Displacement of [3H]epibatidine from Aplysia californica AchBP M116Y, Y195F mutant expressed in HEK293S cells by scintillation proximity assay
[18] = Displacement of [3H]epibatidine from Aplysia californica AchBP I106M, M116L mutant expressed in HEK293S cells by scintillation proximity assay
[19] = Displacement of [3H]epibatidine from Aplysia californica AchBP M116Y mutant expressed in HEK293S cells by scintillation proximity assay
[20] = Displacement of [3H]epibatidine from Aplysia californica AchBP V108M, M116L, Y195F mutant expressed in HEK293S cells by scintillation proximity assay

| Compound | Kd [1] [nM] | Kd [2] [nM] | Kd [3] [nM] | Kd [4] [nM] | Kd [5] [nM] | Kd [6] [nM] | Kd [7] [nM] | Kd [8] [nM] | Kd [9] [nM] | Kd [10] [nM] | Kd [11] [nM] | Kd [12] [nM] | Kd [13] [nM] | Kd [14] [nM] | Kd [15] [nM] | Kd [16] [nM] | Kd [17] [nM] | Kd [18] [nM] | Kd [19] [nM] | Kd [20] [nM] |
| --- | --- | --- | --- | --- | --- | --- | --- | --- | --- | --- | --- | --- | --- | --- | --- | --- | --- | --- | --- | --- |
| N#C/N=c1\sccn1Cc1cnc(Cl)c(N=[N+]=[N-])c1 | 0.46 | 9.6 | 7.2 | 1.6 | 3 | 3 | 1.7 | 2 | 68 | 5.5 | 172 | 1.1 | 3 | 17 | 2.3 | 70 | 19 | 3.2 | 27 | 0.17 |
| [N-]=[N+]=Nc1cc(C2CC3CCC2N3)cnc1Cl (stereo not given) [AZIDOEPIBATIDINE] | 0.58 | 21 | 19 | 8.1 | 10 | 7.2 | 10 | 12 | 4.8 | 22 | 12 | 1.5 | 15 | 37 | 8.6 | 4.5 | 67 | 30 | 34 | 0.33 |
| N#C/N=c1\sccn1Cc1ccc(Cl)nc1 [THIACLOPRID OLEFIN] | 4.8 | 11 | 13 | 3 | 4.7 | 4 | 2.8 | 6.2 | 299 | 4.9 | 247 | 9.2 | 5.6 | 20 | 3.1 | 239 | 60 | 4.3 | 144 | 1.8 |
